Data on three molecules can be found in US20100260697A1, “Composition Containing An Extract of the Fruit of Schisandra Chinensis and Process for Producing Same” (COGNIS FRANCE S.A.S., priority 2003, published 2010).

Assay [1] deals with human fibroblasts. The experiment in a line: Protection of human fibroblasts against UV-A radiation (released MDA, cellular proteins). It counts as cell-based. As to conditions: % versus non-irradiated control; UV-A 20 J/cm2; dose 0.0003 % w/v. How it is done:
The aim of this test is to evaluate the capacities against oxidative stress of the extract by a test on a cell culture of human fibroblasts in vitro. This test in vitro evaluates the capacities of cytophotoprotection of human fibroblasts against UV-A radiation. […] The formed lipoperoxydes split in malondialdehyde responsible of the reticulation of many biological molecules such as proteins (inhibition of enzymes) and nucleic bases (mutagenesis).
The fibroblasts were seeded in a defined culture medium with foetal calf serum (FCS). […] At the end of the irradiation, the level of MDA (malondialdehyde) was measured in the supernatant by a chemical reaction of MDA with thiobarbituric acid which produces a coloured compound the concentration of which was determined by measuring optical density and the level of proteins was measured in the cell homogenate by Bradford's method. Bradford's method is a known method to quantify the level of proteins (Bradford M M., A rapid and sensitive method for the quantification of microgram quantities of protein utilizing the principle of protein-dye binding. Anal. Biochem., Vol 72, pages 248 to 254, 1976).
The results are expressed as % versus the irradiated control or MDA, and the non-irradiated control for proteins then as an average value of 2 tests in triplicate: […]

The test system of assay [2] is melanocytes B16. Briefly: Inhibition of melanin synthesis; whitening activity on melanocytes B16. It counts as cell-based. As to conditions: for Melanin / Proteins: % against control, 3 days. On the procedure:
The whitening activity of the extract was evaluated on a cell line of melanocytes (melanocytes B16 were used; this is a cell line known to the skilled person in the art). The melanocytes were exposed to the extract for 3 days at 37° C. and then the melanocytes were homogenised in 1 n NaOH and the level of melanin was evaluated by measuring the optical density at 475 nm. The level of proteins in the cells was determined by Bradford's method.
The results are expressed in % refering of the control and the whitening potential is characterised by the ratio of melanin level by the protein level (or melanin/protein) for a non toxic concentration of the tested compound.

Several values for one entry are separate records, joined by “and”; a condition that tells them apart may be missing. Equal entries are not always repeated.

With vitamin E, in assay [1], the “Cellular Proteins” value is 110% and 96%.

As to `OC[C@H]1O[C@@H](Oc2ccc(O)cc2)[C@H](O)[C@@H](O)[C@@H]1O` [Arbutin], in assay [2] (dose 0.2 % w/v), the Melanin was 54%, the Proteins is reported as 86% and the “Index = Proteins/Melanin” value is 1.60.

Take `O=c1cc(CO)occ1O` [Kojic acid]: in assay [2] (dose 0.03 % w/v), the Melanin came to 26%, the Proteins is 89% and the “Index = Proteins/Melanin” value is 3.37.
